Common to all, as to assay: MIC in vitro
Type in all cases: cell-based

For one experiment, the system named is Sarcina lutea ATCC 9341. Particulars: Micrococcus luteus, ATCC9341, Dextrose agar, 37° C., 20 hours. The protocol:
(§1) (G. L. Daquet and Y. A. Chabbect, Techniques en bacteriologie (Bacteriological techniques), vol. 3, Flammarion Medecine Sciences, Paris, 1972 and W. B. Hugo and A. D. Rusell, Pharmaceutical Microbiology, Blackwell Scientific Publications, London, (1977)). Antibiotic medium no. 1 (seed agar) (Oxoid CM 327) Tryptone-soya broth (Oxoid CM 129) Ringer's physiological solution 1/4 (oxoid BR 52) Dextrose agar (BBL-11165) 0.1 N NaOH "Sarcina Lutea" ATCC 9341 Each of the microorganisms is seeded by streaking in tubes of Antibiotic medium No. 1 (seed agar), which are then incubated at 37° C. for 20 hours. Using a culture loop, the cultures are then seeded in tryptone-soyabroth and incubated at 37° C. for 20 hours. The culture obtained is diluted to 1/4 with Ringer's physiological solution, so as to obtain a standardized suspension of 10^7 -10^9 cfu/ml for each organism. Starting from a solution of 1,000 μg/ml in 0.1 N NaOH, each product is diluted in Dextrose agar (previously melted and maintained at 50° C.), with successive dilutions so as to obtain the following concentrations: 64--32--16--8--4--2--1--0.5--0.25--0.125 μg of derivative/ml medium. For each product, the solution of each concentration is subsequently distributed into Petri dishes 10 cm in diameter, with 10 ml of medium per dish and the same number of dishes as microorganisms to be tested. As soon as the medium has cooled, the dishes are seeded with the inoculations using 0.4 ml of inoculation per dish. They are spread with a Driglasky loop and the supernatant is removed. The seeded dishes are incubated at 37° C. for 20 hours.

The test system of experiment [1] is Streptococcus faecalis ATCC 10541. Particulars: Enterococcus faecalis, ATCC10541, Dextrose agar, 37° C., 20 hours.
From the text: as §1, with “"Streptococcus faecalis"” for “"Sarcina Lutea"”, “10541” for “9341”

Experiment [2] relates to Pseudomonas aeruginosa ATCC 25115. Conditions: ATCC25115, Dextrose agar, 37° C., 20 hours.
From the text: as §1, with “"Pseudomonas aeruginosa"” for “"Sarcina Lutea"”, “25115” for “9341”

MIC data for five compounds are collected here from US4552882A, “7-(1-Pyrrolyl) derivatives of 1-ethyl-1,4-dihydro-4-oxoquinoline-3-carboxylic acids and 1-ethyl-1,4-dihydro-4-oxo-1,8-naphthyridine-3-carboxylic acids and their use as antimicrobial agents” (Provesan, SA, priority 1983, dated 1985).

Broadly, the MIC is the smallest concentration in the dilution series that meets the test's criterion for growth inhibition.

In brackets after ≈: the same amount, converted by molar mass.

Consider `CCn1cc(C(=O)O)c(=O)c2ccc(-n3cccc3)cc21` [Example 1, 7-(1-pyrrolyl)-1-ethyl-1,4-dihydro-4-oxo-3-quinolinecarboxylic acid], for which the values for the MIC (with Sarcina lutea ATCC 9341; in experiment [1]; in experiment [2]) were 16 µg/mL (≈ 56.7 µM), 16 µg/mL (≈ 56.7 µM) and over 64 µg/mL, respectively.

On to `CCn1cc(C(=O)O)c(=O)c2ccc(-n3cccc3)nc21` [Example 3, 1-ethyl-1,4-dihydro-4-oxo-7-(1-pyrrolyl)-1,8-naphthyridine-3-carboxylic acid], for which the minimal inhibitory concentration (MIC) is 8 µg/mL (≈ 28.2 µM) with Sarcina lutea ATCC 9341, 32 µg/mL (≈ 113 µM) in experiment [1] and over 64 µg/mL in experiment [2].

As to `CCn1cc(C(=O)O)c(=O)c2cc(F)c(-n3cccc3)nc21` [Example 4, 1-ethyl-1,4-dihydro-4-oxo-6-fluoro-7-(1-pyrrolyl)-1,8-naphthyridine-3-carboxylic acid], the MIC worked out at 4 µg/mL (≈ 13.3 µM) with Sarcina lutea ATCC 9341, 8 µg/mL (≈ 26.6 µM) in experiment [1] and 32 µg/mL (≈ 106 µM) in experiment [2].

On to `CCn1cc(C(=O)O)c(=O)c2cc(F)c(-n3cccc3)cc21` [Example 2, 6-fluoro-7-(1-pyrrolyl)-1-ethyl-1,4-dihydro-4-oxo-3-quinolinecarboxylic acid], for which the MIC with Sarcina lutea ATCC 9341 was found to be 16 µg/mL (≈ 53.3 µM); in experiment [1], 1 µg/mL (≈ 3.33 µM); in experiment [2] it was 16 µg/mL (≈ 53.3 µM).

Consider `CCn1cc(C(=O)O)c(=O)c2cnc(N3CCNCC3)nc21` [Pipemidic acid, reference compound], for which the MIC against Sarcina lutea ATCC 9341 was over 64 µg/mL; in experiment [1] it was over 64 µg/mL; in experiment [2] it was 32 µg/mL (≈ 105 µM).
